# Laboratory results: patent US5618812A, “Benzodiazepine derivatives” (Merck Sharp & Dohme, Ltd., priority 1992, dated 1997)
# Where a name gives a salt, the structure may show the parent alone.
# Experiments:
# CCK-B = target: T1, CCK-B (Cavia porcellus, UniProt H0VZC5); assay: displacement of specific 125I-CCK from guinea pig brain (CCK-B receptor binding); conditions: read-out: CCK RECEPTOR BINDING RESULTS IC50 125I-CCK Brain
# T1 construct: guinea pig brain (CCK-B); from tissue; host or cells: guinea pig brain
# T1 sequence (H0VZC5 1-426): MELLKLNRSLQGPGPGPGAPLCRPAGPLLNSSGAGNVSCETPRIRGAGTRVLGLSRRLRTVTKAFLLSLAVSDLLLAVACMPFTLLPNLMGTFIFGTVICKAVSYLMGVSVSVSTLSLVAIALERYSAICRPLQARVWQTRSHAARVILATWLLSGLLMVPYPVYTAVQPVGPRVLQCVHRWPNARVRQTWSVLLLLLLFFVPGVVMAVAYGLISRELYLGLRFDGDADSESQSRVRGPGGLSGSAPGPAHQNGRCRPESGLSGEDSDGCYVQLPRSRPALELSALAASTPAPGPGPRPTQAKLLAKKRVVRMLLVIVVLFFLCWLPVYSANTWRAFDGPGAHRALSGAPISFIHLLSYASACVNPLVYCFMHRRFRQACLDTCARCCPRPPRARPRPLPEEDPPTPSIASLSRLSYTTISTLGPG
# Description: (§1) The CCK-A and CCK-B antagonising activity of the compounds described herein was evaluated using the assays described in published European patent application no. 0514133. The method essentially involves determining the concentration of the test compound required to displace 50% of the specific ^125 I-CCK from rat pancreas (CCK-A) or guinea pig brain (CCK-B). The data in Table 1 were obtained for compounds of the Examples.
# CCK-A = target: T2, CCK-A (Rattus norvegicus, UniProt P30551); assay: biochemical; assay type: binding; conditions: rat pancreas (CCK-A), 125I-CCK; read-out: CCK RECEPTOR BINDING RESULTS IC50 125I-CCK Pancreas
# T2 sequence (P30551 1-444): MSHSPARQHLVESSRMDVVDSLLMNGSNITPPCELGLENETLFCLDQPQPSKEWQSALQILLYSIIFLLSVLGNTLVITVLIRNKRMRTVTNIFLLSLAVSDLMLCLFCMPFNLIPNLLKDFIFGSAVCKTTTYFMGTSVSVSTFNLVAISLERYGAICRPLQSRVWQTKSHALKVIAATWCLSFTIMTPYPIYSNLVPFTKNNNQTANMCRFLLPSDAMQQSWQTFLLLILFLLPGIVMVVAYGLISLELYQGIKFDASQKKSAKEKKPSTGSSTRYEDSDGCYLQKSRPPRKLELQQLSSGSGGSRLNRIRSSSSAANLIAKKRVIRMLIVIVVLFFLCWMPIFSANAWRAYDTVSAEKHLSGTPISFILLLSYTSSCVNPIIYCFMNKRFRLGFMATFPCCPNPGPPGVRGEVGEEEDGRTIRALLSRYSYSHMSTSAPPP
# Description: as §1, with “(CCK-B).” for “(CCK-B). The data in Table 1 were obtained for compounds of the Examples.”
SMILES,IC50 (CCK-B) [nM],IC50 (CCK-A) [nM]
"CCCN1C(=O)C(NC(=O)Nc2cccc(C)c2)N=C(N(C)C2CCCCC2)c2ccccc21 (racemic) [Example 60, N-[3(R,S)-5-(N-Cyclohexyl-N-methylamino)-2,3-dihydro-2-oxo-1-propyl-1H-1,4-benzodiazepin-3-yl]-N'-[3-methylphenyl]urea]",2.56,186
"Cc1cccc(NC(=O)NC2N=C(N(C)C3CCCCC3)c3ccccc3N(C)C2=O)c1 (racemic) [Example 63, N-[3(R,S)-5-(N-Cyclohexyl-N-methylamino)-2,3-dihydro-1-methyl-2-oxo-1H-1,4-benzodiazepin-3-yl]-N'-[3-methylphenyl]urea]",1.36,304
"Cc1cccc(NC(=O)NC2N=C(N(C)C3CCCCCC3)c3ccccc3N(C)C2=O)c1 (racemic) [Example 66, N-[3(R,S)-5-(N-Cycloheptyl-N-methylamino)-2,3-dihydro-1-methyl-2-oxo-1H-1,4-benzodiazepin-3-yl]-N'-[3-methylphenyl]urea]",0.79,83.6
"CN1C(=O)C(NC(=O)Nc2ccc3c(c2)CCC3)N=C(N(C)C2CCCCCC2)c2ccccc21 (racemic) [Example 69, N-[3(R,S)-5-(N-Cycloheptyl-N-methylamino)-2,3-dihydro-1-methyl-2-oxo-1H-1,4-benzodiazepin-3-yl]-N'-[5-indanyl]urea]",2.82,469
"Cc1cccc(NC(=O)NC2N=C(N(C)Cc3ccccc3)c3ccccc3N(C)C2=O)c1 (racemic) [Example 72, N-[3(R,S)-5-(N-Benzyl-N-methylamino)-2,3-dihydro-1-methyl-2-oxo-1H-1,4-benzodiazepin-3-yl]-N'-[3-methylphenyl]urea]",10.3,176
"Cc1cccc(NC(=O)NC2N=C(N(C)C3CCN(C)CC3)c3ccccc3N(C)C2=O)c1 (racemic) [Example 73, N-[3(R,S)-5-(N-(4-N-Methylpiperidinyl)-N-methylamino)-2,3-dihydro-1-methyl-2-oxo-1H-1,4-benzodiazepin-3-yl]-N'-[3-methylphenyl]urea]",1410,> 3000
Cc1cccc(NC(=O)NC2N=C(N(C)CC3CCCCC3)c3ccccc3N(C)C2=O)c1 (racemic) [Example 74],7.3,192
"CCCN(CCC)C1=NC(NC(=O)Nc2cccc(C)c2)C(=O)N(C)c2ccccc21 (racemic) [Example 75, N-[3(R,S)-5-(N,N-Di-^npropylamino)-2,3-dihydro-1-methyl-2-oxo-1H-1,4-benzodiazepin-3-yl]-N-[3-methylphenyl]urea]",46.9,314
"CCN(C1=NC(NC(=O)Nc2cccc(C)c2)C(=O)N(C)c2ccccc21)C1CCCC1 (racemic) [Example 76, N-[3(R,S)-5-(N-Cyclopentyl-N-ethylamino)-2,3-dihydro-1-methyl-2-oxo-1H-1,4-benzodiazepin-3-yl]-N'-[3-methylphenyl]urea]",3.12,760
"Cc1cccc(NC(=O)NC2N=C(N(C)C3CCC(C)(C)CC3)c3ccccc3N(C)C2=O)c1 (racemic) [Example 77, N-[3(R,S)-5-(N-(4,4-Dimethylcyclohexyl)-N-methylamino)-2,3-dihydro-1-methyl-2-oxo-1H-1,4-benzodiazepin-3-yl]-N'-[3-methylphenyl]urea]",81.1,135
"CCN(C1=NC(NC(=O)Nc2cccc(C)c2)C(=O)N(C)c2ccccc21)C1CCCCC1 (racemic) [Example 78, N-[3(R,S)-5-(N-Cyclohexyl-N-ethylamino)-2,3-dihydro-1-methyl-2-oxo-1H-1,4-benzodiazepin-3-yl]-N'-3-methylphenyl]urea]",4.5,891
"CCCN(C1=NC(NC(=O)Nc2cccc(C)c2)C(=O)N(C)c2ccccc21)C1CCCCC1 (racemic) [Example 79, N-[3(R,S)-5-(N-Cyclohexyl-N-propylamino)-2,3-dihydro-1-methyl-2-oxo-1H-benzodiazepin-3-yl]-N'-[3-methylphenyl]urea]",13.4,1700
"Cc1cccc(NC(=O)NC2N=C(N(Cc3ccccc3)C3CCCCC3)c3ccccc3N(C)C2=O)c1 (racemic) [Example 80, N-[3(R,S)-5-(N-Benzyl-N-cyclohexylamino)-2,3-dihydro-1-methyl-2-oxo-1H-1,4-benzodiazepin-3-yl]-N'-[3-methylphenyl]urea]",32.4,1140
"Cc1cccc(NC(=O)NC2N=C(NC3CCCCC3)c3ccccc3N(C)C2=O)c1 (racemic) [Example 81, N-[3(R,S)-5(N-Cyclohexylamino)-2,3-dihydro-1-methyl-2-oxo-1H-1,4-benzodiazepin-3-yl]-N'-[3-methylphenyl]urea]",23.2,14.9
"CN1C(=O)C(NC(=O)Nc2ccc3c(c2)CCC3)N=C(N(C)C2CCCCC2)c2ccccc21 (racemic) [Example 82, N-[3(R,S)-5-(N-Cyclohexyl-N-methylamino)-2,3-dihydro-1-methyl-2-oxo-1H-1,4-benzodiazepin-3-yl]-N'-[5-indanyl]urea]",0.47,815
"Cc1cccc(NC(=O)NC2N=C(N(C)C3CCCCCCC3)c3ccccc3N(C)C2=O)c1 (racemic) [Example 83, N-[3(R,S)-5-(N-Cyclooctyl-N-methylamino)-2,3-dihydro-1-methyl-2-oxo-1H-1,4-benzodiazepin-3-yl]-N'-[3-methylphenyl]urea]",3.67,283
"Cc1cccc(NC(=O)NC2N=C(NCCN(C)C)c3ccccc3N(C)C2=O)c1 (racemic) [Example 84, N-[3(R,S)-2,3-Dihydro-5-(2-(N,N-dimethylamino)ethylamino)-1-methyl-2-oxo-1H-1,4-benzodiazepin-3-yl]-N'-[3-methylphenyl]urea dihydrochloride]",1900,> 3000
"Cc1cccc(NC(=O)NC2N=C(N(C)CCN3CCOCC3)c3ccccc3N(C)C2=O)c1 (racemic) [Example 85, N-[3(R,S)-2,3-Dihydro-5-(N-(2-N-morpholinoethyl)-N-methylamino)-1-methyl-2-oxo-1H-1,4-benzodiazepin-3-yl]-N'-[3-methylphenyl]urea]",785,> 3000
"Cc1cncc(NC(=O)NC2N=C(N(C)C3CCCCCC3)c3ccccc3N(C)C2=O)c1 (racemic) [Example 86, N-[3(R,S)-5-(N-Cycloheptyl)-N-methylamino)-2,3-dihydro-1-methyl-2-oxo-1H-1,4-benzodiazepin-3-yl]-N'-[3-(5-methylpyridine)]urea]",31.3,831
"CN1C(=O)C(NC(=O)c2cc3ccccc3[nH]2)N=C(N2CC3CCC(CC3)C2)c2ccccc21 (racemic) [Example 87, 3(R,S)-N-(5-(3-Azabicyclo[3,2,2]nonan-3-yl)-2,3-dihydro-1-methyl-2-oxo-1H-1,4-benzodiazepin-3-yl)-1H-indole-2-carboxamide]",509,0.87
"CC(C)CN1C(=O)C(NC(=O)c2cc3ccccc3[nH]2)N=C(N2CCCCCC2)c2ccccc21 (racemic) [Example 90, 3(R,S)-N-(2,3-Dihydro-5-(homopiperidin-1-yl)-1-(2-methylpropyl)-2-oxo-1H-1,4-benzodiazepin-3-yl)-1H-indole-2-carboxamide]",225,8.7
"CC(C)CN1C(=O)C(NC(=O)Cc2c[nH]c3ccccc23)N=C(N2CCCCCC2)c2ccccc21 (racemic) [Example 94, 3(R,S)-N-(2,3-Dihydro-5-(homopiperidin-1-yl)-1-(2-methylpropyl)-2-oxo-1H-1,4-benzodiazepin-3-yl)-1H-indole-3-acetamide]",119,646
"CC(C)CN1C(=O)C(NC(=O)c2cc3ccccc3[nH]2)N=C(N2CCC(C)CC2)c2ccccc21 (racemic) [Example 95, 3(R,S)-N-(2,3-Dihydro-5-(4-methylpiperidin-1-yl)-1-(2-methylpropyl)-2-oxo-1H-1,4-benzodiazepin-3-yl)-1H-indole-2-carboxamide]",161,11.6
